Source: patent publication US10351548B2, “2-oxo-1,2-dihydropyridine-3-carboxamide compounds and their use as inhibitors of PDK1” (INTERNATIONAL SOCIETY FOR DRUG DEVELOPMENT S.R.L., priority 2015, dated 2019)

Tested on: GSCs isolated from U87MG cells
Assay: Annexin V and 7-AAD staining in GSCs (apoptosis)
Type: cell-based, human
Conditions: 10 μM, 7 days
Method: Dual staining with Annexin V coniugated to fluorescein-isothiocyanate (FITC) and 7-amino-actinomysin (7-AAD) was performed using the commercially available kit (Muse Annexin V and Dead Cell Kit; Merck KGaA, Darmstadt, Germany). U87MG cells or GSCs were treated with DMSO (control), SA16, SA23 or IB35 for 72 h or seven days, respectively. At the end of the treatment periods, the percentages of living, apoptotic and dead cells were acquired and analysed by Muse™ Cell Analyzer as previously described (Daniele, S., et al., Combined inhibition of AKT/mTOR and MDM2 enhances Glioblastoma Multiforme cell apoptosis and differentiation of cancer stem cells. Sci. Rep., 2015. 5.).
It was investigated if the reduction of cell proliferation elicited by the two compounds could be associated to cell apoptosis. […] At the end of treatments, the cells were collected and the degree of phosphatidylserine externalisation was evaluated using the Annexin V protocol, as above described (FIG. 10). The data were expressed as the percentage of apoptotic cells (early-apoptotic in white, late-apoptotic/necrotic in grey) relative to the total number of cells and represented in FIG. 11. […] The significance of the differences was determined with a one-way ANOVA with Bonferroni post-test (*** p<0.001 vs. control).

## O=C(CNC(=O)c1cccn(Cc2ccc(F)c(F)c2)c1=O)Nc1ccc2c(c1)/C(=C/c1cnc[nH]1)C(=O)N2 [IB35, (Z)—N-(2-((3-((1H-imidazol-5-yl)methylene)-2-oxoindolin-5-yl)amino)-2-oxoethyl)-1-(3,4-difluorobenzyl)-2-oxo-1,2-dihydro pyridine-3-carboxamide]
  percentage of total apoptotic cells: 38.5±3.9%
